According to patent US9060966B2, “Use of 2,5-dihydroxybenzene derivatives for the treatment of arthritis and pain” (priority 2006, dated 2015):
Entries after “also recorded” stand apart in the source; their conditions may differ.

Assays:
[1] = system: skeletal muscle lesions; test: Oral treatment of skeletal muscle and tendon lesions in patients (MRI, function); assay type: in vivo, human
Experimental: A and B are, respectively, front and cross sectional magnetic resonance images (MRI) showing the breaking of the left quadriceps in a patient, immediately before treatment. The presence of a large hematoma, indicated by arrows, may be observed. C and D are, respectively, front and cross sectional MRI showing the quadriceps of the same patient after treatment with 2,5-dihydroxybenzene sulfonic acid (DHBS) (500 mg/day p.o. for two weeks). […] 1 indicates the femur and 2 indicates the femoral vessels.
A is a Magnetic Resonance Image (MRI) of a patient showing the breaking of the right arm brachial biceps one day after the lesion and immediately before the treatment.
Images show the clinical manifestation of the patient referred to in FIG. 12. Before the treatment (1 day after the lesion) a large hematoma (A) and limited flexion (B) and extension (C) of the elbow are observed.
It is a Magnetic Resonance Image (MRI) of a patient showing the breaking of left leg semitendinosus muscle 9 days after the lesion and immediately before starting the treatment.
A is a Magnetic Resonance Image (MRI) of a patient showing the Achilles tendon rupture just before being treated.
The capacity of a 2,5-dihydroxybenzene derivative, the 2,5-dihydroxybenzene sulfonic acid (DHBS) to effectively treat skeletal muscle lesions is shown herein. The efficacy is evident, not only in the images of conventional diagnosis that show the recovery of the muscular damage, but also there is a clear functional recovery of the affected limb.
The first patient's left quadriceps was broken by practicing sports. […] At that moment, the patient starts a daily oral treatment with 500 mg of 2,5-dihydroxybenzene sulfonic acid (DHBS) for two weeks. […] An observation that may be applied to the other cases that support this example.
Other patient has an hematoma and muscular breaking of the brachial biceps, as shown in the magnetic resonance image (MRI) of FIG. 12A. The hematoma can be appreciated externally (FIG. 13A) and the lesion, produced by professional practice (dancing) the day before the consultation, limits the elbow flexion (FIG. 13B) and extension (FIG. 13C).

[2] = system: uterine tissue implanted in the peritoneal cavity; test: Rat model of endometriosis (autologous implant, histology); assay type: in vivo; details: 200 mg/kg/day i.p., two weeks
Text: In these rats, the epithelial layer (a) and the stroma (b) are clearly observed in the endometrium, while longitudinal (c) and circular (d) normal layers of smooth muscle cells are observed in the myometrium adjacent to the peritoneal tissue (e). […] The neovascularization observed in the uterine tissue implanted in control rats (shown with arrows in A) is not present in rats treated with 2,5-dihydroxybenzenesulfonic (DHBS) (C). • D) Magnification of the area marked with a box in C.
Sprague-Dawley rats were anesthetized as described (Fernandez-Tornero C et al. J Biol Chem, 2003). Endometriotic lesions were induced using a known rat model of endometriosis (Vernon M W and Wilson E A. Fertil Steril, 1985). In summary, 2 mm fragments of the cervix were autologously implanted between branches in the mesenteric vascular tree. The rats were treated or not treated (control) daily during two weeks after the surgery with 2,5-dihydroxybenzene sulfonic acid (DHBS) (200 mg/kg; i.p.). Then, the rats were sacrificed and the endometrial ectopic tissue was removed to make its histological examination. […] This example illustrates the therapeutic activity of 2,5-dihydroxybenzene sulfonate (DHBS) in the treatment of endometriosis.

[3] = system: human retinal endothelial cells (HREC); test: Proliferation of human retinal endothelial cells (HREC, crystal violet); assay type: cell-based; details: calcium 2,5-dihydroxybenzenesulfonate, 100 μM, 72 h, for comparison
Experimental: (§1) 2A-5HBS was administered or not administered (control) after seeding the HREC in 24-well plates (7.5×10^3 per well) until they were fixed after 72 hours. The data are expressed as the mean±SEM of the percentage of the absorbance at 595 nm obtained in the control cultures, which is proportional to the number of cells stained with crystal violet. The data were obtained from 6 cultures for each treatment in two separate experiments. The white bar represents the value of the control cells, whereas the gray bars show the value in the presence of 2A-5HBS (500 and 1000 μM). * indicates p<0.05, *** p<0.001 with respect to the control by means of a single-factor analysis of variance (ANOVA) followed by a Student-Newman-Keuls post-analysis.
as §1, with “5A-2HBS” for “2A-5HBS”, “striped” for “gray”, “***” for “*”, “indicates” for “indicates p<0.05, ***”
2,5-DHCME was administered or not administered (control) after seeding the HREC in 24-well plates (7.5×10^3 per well) until they were fixed after 72 hours. The data are expressed as the mean±SEM of the percentage of the absorbance at 595 nm obtained in the control cultures, which is proportional to the number of cells stained with crystal violet. The data were obtained from 6 cultures for each treatment in two separate experiments.
Primary cultures of human retinal endothelial cells (HREC) were used. Cells were obtained from Cell Systems (Virginia, USA) and subcultured with CSC complete medium (Cell Systems). Cells at 2 to 5 passages were seeded in 24-well plates at 7,500 cells/well density and, once attached, the cells were treated o not treated (controls) with 2A-5HBS (500 and 1000 μM) or 5A-2HBS (500 and 1000 μM) and they were allowed to proliferate for 72 hours, with daily medium changes. After that, the proliferation of HREC was evaluated by staining the fixed cells with crystal violet. The number of cells is proportional to the amount of retained dye, which was spectrophotometrically determined by measuring absorbance at 595 nm after removing the dye from the cells. Data are expressed as the percentage of absorbance at 595 nm obtained in control conditions. Data were obtained from two different experiments performed in triplicate.
Primary cultures of human retinal endothelial cells (HREC) were used. Cells were obtained from Cell Systems (Virginia, USA) and subcultured with CSC complete medium (Cell Systems). […] After that, the proliferation of HREC was evaluated by staining the fixed cells with crystal violet. The number of cells is proportional to the amount of retained dye, which was spectrophotometrically determined by measuring absorbance at 595 nm after removing the dye from the cells. Data are expressed as the percentage of absorbance at 595 nm obtained in control conditions. […]

[4] = brachial biceps breaking, 1500 mg/day p.o., 20 days, one patient
[5] = left quadriceps breaking, 500 mg/day p.o., two weeks, one patient

SMILES: O=S(=O)(O)c1cc(O)ccc1O [DHBS, 2,5-dihydroxybenzenesulfonic acid]
- semitendinosus muscle lesion on MRI ([1]; 1500 mg/day p.o., 11 days, started 9 days after lesion, one patient): reduced the muscular lesion; also recorded: remarkable reduction in the size of the lesion
- Achilles tendon lesion on MRI ([1]; 1500 mg/day p.o., two months, one patient): marked reduction of said lesion; also recorded: remarkable reduction in the size of the lesion
- elbow flexion and extension [1, 4]: recovers the functionality of the elbow flexion and extension; also recorded: have been recovered
- size of the lesion and of the hematoma, brachial biceps [1, 4]: markedly reduces the size of the lesion and of the hematoma; also recorded: remarkable reduction in the size of the lesion; also recorded: the hematoma has disappeared
- quadriceps hematoma on MRI [1, 5]: can no longer be observed; also recorded: the hematoma has disappeared
- quadriceps lesion on MRI [1, 5]: recovery of the lesion in the quadriceps
- period to functional recovery and resolution vs conventional treatments (antiinflammatories) ([1]; quadriceps breaking, 500 mg/day p.o., two weeks): shorter period
- flexion and extension capacity of the leg ([1]; quadriceps breaking, 500 mg/day p.o., two weeks, one patient): able to extend the left leg almost completely; also recorded: almost complete flexion (A) and extension (B) capacity
- histology of the implanted uterine (cervix) tissue, hematoxylin-eosin [2]: athrophy of the cervix tissue implanted; also recorded: Degeneration of the uterine tissue implanted
- neovascularization of the implanted uterine tissue [2]: not present
- HREC proliferation [3]: failed to significantly affect
